Data on 20 compounds can be found in patent US11254686B1 (Corvus Pharmaceuticals, Inc., priority 2017, dated 2022).

Read-outs that look alike come from different tables or passages of the source. Some results are limits rather than exact numbers.

In assay [1] the target is adenosine A2B receptor (Homo sapiens (Human), UniProt P29275). Put plainly: Adenosine receptor activity assay (Table 1), A2B activity. In kind it is biochemical. The conditions noted are these: for IC50: read-out: Ave A2B cAMP IC50.
Assay [2] addresses adenosine A2A receptor (Homo sapiens (Human), UniProt P29274). Put plainly: Adenosine receptor activity assay (Table 1), A2A activity. In kind it is biochemical. Conditions: read-out: Ave A2A cAMP IC50.
In assay [3] the target is T1, adenosine A1 receptor (Homo sapiens (Human), UniProt P30542). Description: Adenosine receptor activity assay (Table 1), A1 cAMP. In kind it is cell-based.
The target of assay [4] is T2, adenosine A3 receptor (Homo sapiens (Human), UniProt P0DMS8). Description: Adenosine receptor activity assay (Table 1), A3 cAMP. In kind it is cell-based.
Assay [5] concerns the target T1, adenosine A1 receptor. Description: Adenosine receptor activity assay (Table 1), A1 cAMP. In kind it is biochemical. How it is done: (§1) Table 1. Compounds (e.g., Adenosine Receptor modulators) and activity assay results. The legend is as follows: A=<10 nM; B=10-50 nM; C=50-100 nM; D=100-500; and E=>500 nM. The ratio corresponds to the A2A activity to the A2B activity; or A2A/A2B.

In assay [6] the target is T2, adenosine A3 receptor. Description: Adenosine receptor activity assay (Table 1), A3 cAMP. The assay is classed as biochemical. The method, then:
as §1

The mark [7] stands for this setting: A2A activity to A2B activity (A2A/A2B).
The mark [8] stands for this setting: A2A activity to the A2B activity, A2A/A2B.

T2 sequence (P0DMS8 whole entry): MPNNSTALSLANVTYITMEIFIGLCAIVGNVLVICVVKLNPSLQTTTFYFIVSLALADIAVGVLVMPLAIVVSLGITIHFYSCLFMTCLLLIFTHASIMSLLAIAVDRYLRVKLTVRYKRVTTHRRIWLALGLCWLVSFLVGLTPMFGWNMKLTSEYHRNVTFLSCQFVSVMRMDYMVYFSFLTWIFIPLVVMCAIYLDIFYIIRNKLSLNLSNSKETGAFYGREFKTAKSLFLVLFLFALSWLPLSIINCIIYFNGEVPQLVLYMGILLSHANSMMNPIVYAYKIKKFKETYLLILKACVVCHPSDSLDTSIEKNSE
T1 sequence (P30542 whole entry): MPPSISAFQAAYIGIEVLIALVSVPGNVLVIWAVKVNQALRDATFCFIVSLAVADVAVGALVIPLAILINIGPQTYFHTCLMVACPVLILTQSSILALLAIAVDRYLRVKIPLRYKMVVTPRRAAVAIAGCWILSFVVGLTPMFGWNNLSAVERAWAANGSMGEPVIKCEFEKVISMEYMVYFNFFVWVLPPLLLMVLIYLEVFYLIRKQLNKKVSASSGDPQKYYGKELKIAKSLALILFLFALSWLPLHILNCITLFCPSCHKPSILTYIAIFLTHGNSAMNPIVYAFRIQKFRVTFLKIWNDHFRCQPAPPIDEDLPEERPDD
Chain of adenosine A2B receptor (P29275 whole entry): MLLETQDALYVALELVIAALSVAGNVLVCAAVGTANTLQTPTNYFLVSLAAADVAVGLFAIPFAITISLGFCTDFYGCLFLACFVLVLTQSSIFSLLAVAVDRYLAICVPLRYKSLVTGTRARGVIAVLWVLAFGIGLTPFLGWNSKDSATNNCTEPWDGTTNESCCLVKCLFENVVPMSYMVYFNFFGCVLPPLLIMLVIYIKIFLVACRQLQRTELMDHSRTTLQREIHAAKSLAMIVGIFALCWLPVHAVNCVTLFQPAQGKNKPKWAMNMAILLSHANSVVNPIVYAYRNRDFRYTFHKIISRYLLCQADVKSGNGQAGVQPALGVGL
Chain of adenosine A2A receptor (P29274 whole entry): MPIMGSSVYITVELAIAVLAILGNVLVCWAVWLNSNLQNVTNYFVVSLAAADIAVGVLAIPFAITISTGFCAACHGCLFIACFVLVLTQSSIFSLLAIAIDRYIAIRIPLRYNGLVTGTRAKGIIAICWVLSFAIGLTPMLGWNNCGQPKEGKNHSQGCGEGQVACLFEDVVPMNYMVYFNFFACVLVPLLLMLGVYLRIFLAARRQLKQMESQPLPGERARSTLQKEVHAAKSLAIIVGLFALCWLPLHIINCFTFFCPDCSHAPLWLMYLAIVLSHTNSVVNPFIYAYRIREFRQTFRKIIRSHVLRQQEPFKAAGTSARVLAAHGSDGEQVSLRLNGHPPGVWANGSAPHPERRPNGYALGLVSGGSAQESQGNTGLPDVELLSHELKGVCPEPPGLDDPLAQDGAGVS

As to `CC(C)NC(=O)c1nc(N[C@@H](C)c2ccccn2)nc2ccsc12` [Example Z199, (S)—N-Isopropyl-2-((1-(pyridin-2-yl)ethyl)amino)thieno[3,2-d]pyrimidine-4-carboxamide], the Ratio in assay [1] (setting [7]) is 3.51. Moreover, the IC50 is less than 10 nM in assay [1], 10 to 50 nM in assay [2], greater than 500 nM in assay [3] and 50 to 100 nM in assay [4].

In the case of `C[C@H](Nc1nc(C(=O)NC(C)(C)C)c2sccc2n1)c1ccccn1` [Example Z201, (S)—N-(tert-Butyl)-2-((1-(pyridin-2-yl)ethyl)amino)thieno[3,2-d]pyrimidine-4-carboxamide], the Ratio in assay [1] (setting [7]) turned out to be 2.22. For the same compound, the half-inhibitory concentration (IC50) lay within 10 to 50 nM in assay [1], 50 to 100 nM in assay [2], 50 to 100 nM in assay [3] and 50 to 100 nM in assay [4].

Regarding `CNc1cc2nc(N[C@@H](C)c3ccccn3)nc(C(=O)N3CC(O)C3)c2s1` [Example Z221, (S)-(3-Hydroxyazetidin-1-yl)(6-(methylamino)-2-((1-(pyridin-2-yl)ethyl)amino)thieno[3,2-d]pyrimidin-4-yl)methanone], the Ratio in assay [1] (setting [7]) is 52.95. Moreover, the IC50 in assay [1] is 10 to 50 nM; in assay [2] it was greater than 500 nM; in assay [3] it was greater than 500 nM; in assay [4], 50 to 100 nM.

For `CNc1cc2nc(N[C@@H](C)c3ccccn3)nc(C(=O)NCCO)c2s1` [Example Z222, (S)—N-(2-Hydroxyethyl)-6-(methylamino)-2-((1-(pyridin-2-yl)ethyl)amino)thieno[3,2-d]pyrimidine-4-carboxamide], the Ratio in assay [1] (setting [7]) is reported as 44.93. Besides, the half-maximal inhibitory concentration (IC50) in assay [1] was 10 to 50 nM; in assay [2] it was greater than 500 nM; in assay [3], greater than 500 nM; in assay [4] it was greater than 500 nM.

As for `C[C@H](Nc1nc(C(=O)N2CCCC2)c2sc(N)cc2n1)c1cncc(F)c1` [Example Z223, (S)-(6-Amino-2-((1-(5-fluoropyridin-3-yl)ethyl)amino)thieno[3,2-d]pyrimidin-4-yl)(pyrrolidin-1-yl)methanone], the Ratio in assay [1] (setting [7]) is on record as 158.10. For the same compound, the IC50 is less than 10 nM in assay [1], 100 to 500 nM in assay [2], greater than 500 nM in assay [3] and greater than 500 nM in assay [4].

On to `C[C@H](Nc1nc(C(=O)NCC(F)(F)F)c2sccc2n1)c1ccccn1` [Example Z226, (S)-2-((1-(Pyridin-2-yl)ethyl)amino)-N-(2,2,2-trifluoroethyl)thieno[3,2-d]pyrimidine-4-carboxamide], for which, in assay [1] (setting [7]), the Ratio is 11.22. Moreover, the IC50 in assay [1] was less than 10 nM; in assay [2] it was 50 to 100 nM; in assay [3], greater than 500 nM; in assay [4] it was greater than 500 nM.

As for `C[C@H](Nc1nc(C(=O)N2CCC2)c2sccc2n1)c1cncc(Cl)c1` [Example Z232, (S)-Azetidin-1-yl(2-((1-(5-chloropyridin-3-yl)ethyl)amino)thieno[3,2-d]pyrimidin-4-yl)methanone], the Ratio in assay [1] (setting [7]) turned out to be 60.88. Also, the IC50 is less than 10 nM in assay [1], 100 to 500 nM in assay [2], greater than 500 nM in assay [3] and greater than 500 nM in assay [4].

Turning to `COC1CN(C(=O)c2nc(N[C@@H](C)c3cncc(Cl)c3)nc3ccsc23)C1` [Example Z233, (S)-(2-((1-(5-Chloropyridin-3-yl)ethyl)amino)thieno[3,2-d]pyrimidin-4-yl)(3-methoxyazetidin-1-yl)methanone], the Ratio in assay [1] (setting [7]) came out at 51.97. Besides, the half-maximal inhibitory concentration (IC50) was less than 10 nM in assay [1], 100 to 500 nM in assay [2], greater than 500 nM in assay [3] and greater than 500 nM in assay [4].

For `C[C@H](Nc1nc(C(=O)N2CC[C@@H](F)C2)c2sccc2n1)c1cncc(F)c1` [Example Z234, (2-(((S)-1-(5-Fluoropyridin-3-yl)ethyl)amino)thieno[3,2-d]pyrimidin-4-yl)((R)-3-fluoropyrrolidin-1-yl)methanone], in assay [1] (setting [7]), the Ratio amounted to 58.04. The IC50 in assay [1] is less than 10 nM; in assay [2], 100 to 500 nM; in assay [3], greater than 500 nM; in assay [4], greater than 500 nM.

Regarding `C[C@H](Nc1nc(C(=O)N2CC[C@H](O)C2)c2sccc2n1)c1cncc(Cl)c1` [Example Z236, (2-(((S)-1-(5-Chloropyridin-3-yl)ethyl)amino)thieno[3,2-d]pyrimidin-4-yl)((S)-3-hydroxypyrrolidin-1-yl)methanone], the Ratio in assay [1] (setting [7]) stood at 57.61. Also, the IC50 in assay [1] is 10 to 50 nM; in assay [2], greater than 500 nM; in assay [3] it was greater than 500 nM; in assay [4], greater than 500 nM.

On to `Cc1cc2nc(N[C@@H](C)c3cncc(F)c3)nc(C(=O)N3CC(NC(=O)C(C)C)C3)c2s1` [Example Z588, (S)—N-(1-(2-((1-(5-Fluoropyridin-3-yl)ethyl)amino)-6-methylthieno[3,2-d]pyrimidine-4-carbonyl)azetidin-3-yl)isobutyramide], for which the Ratio in assay [1] (setting [8]) was 0.26. Besides, the IC50 in assay [1] was 10 to 50 nM; in assay [2] it was less than 10 nM; in assay [5] it was greater than 500 nM; in assay [6], 100 to 500 nM.

For the compound `Cc1cc2nc(N[C@@H](C)c3cncc(F)c3)nc(C(=O)N3CC(NC(=O)OCC(C)(C)C)C3)c2s1` [Example Z591, Neopentyl (S)-(1-(2-((1-(5-fluoropyridin-3-yl)ethyl)amino)-6-methylthieno[3,2-d]pyrimidine-4-carbonyl)azetidin-3-yl)carbamate], the Ratio in assay [1] (setting [8]) amounted to 0.14. Moreover, the half-maximal inhibitory concentration (IC50) in assay [1] is 10 to 50 nM; in assay [2] it was less than 10 nM; in assay [5], greater than 500 nM; in assay [6] it was 10 to 50 nM.

Take `Cc1cc2nc(N[C@@H](C)c3cncc(F)c3)nc(C(=O)N3CC(C(=O)NOC(C)(C)C)C3)c2s1` [Example Z592, (S)—N-(tert-Butoxy)-1-(2-((1-(5-fluoropyridin-3-yl)ethyl)amino)-6-methylthieno[3,2-d]pyrimidine-4-carbonyl)azetidine-3-carboxamide]: the Ratio in assay [1] (setting [8]) is reported as 4.67. For the same compound, the 50% inhibitory concentration (IC50) in assay [1] is 10 to 50 nM; in assay [2] it was 50 to 100 nM; in assay [5], greater than 500 nM; in assay [6] it was greater than 500 nM.

Consider `Cc1cc2nc(N[C@@H](C)c3cncc(F)c3)nc(C(=O)N3CCN(C(=O)NC(C)C)C3)c2s1` [Example Z593, (S)-3-(2-((1-(5-Fluoropyridin-3-yl)ethyl)amino)-6-methylthieno[3,2-d]pyrimidine-4-carbonyl)-N-isopropylimidazolidine-1-carboxamide], for which, in assay [1] (setting [8]), the Ratio worked out at 3.25. For the same compound, the half-maximal inhibitory concentration (IC50) in assay [1] was 10 to 50 nM; in assay [2], 50 to 100 nM; in assay [5] it was greater than 500 nM; in assay [6], greater than 500 nM.

As to `C[C@H](Nc1nc(C(=O)N2CC(NC(=O)C(C)(C)C)C2)c2sccc2n1)c1cncc(F)c1` [Example Z594, (S)—N-(1-(2-((1-(5-Fluoropyridin-3-yl)ethyl)amino)thieno[3,2-d]pyrimidine-4-carbonyl)azetidin-3-yl)pivalamide], the Ratio in assay [1] (setting [8]) is reported as 0.15. Also, the half-maximal inhibitory concentration (IC50) is 10 to 50 nM in assay [1], less than 10 nM in assay [2], greater than 500 nM in assay [5] and 50 to 100 nM in assay [6].

Regarding `Cc1cc2nc(N[C@@H](C)c3cncc(F)c3)nc(C(=O)N3CC[C@H]3C)c2s1` [Example Z595, (2-(((S)-1-(5-Fluoropyridin-3-yl)ethyl)amino)-6-methylthieno[3,2-d]pyrimidin-4-yl)((R)-2-methylazetidin-1-yl)methanone], in assay [1] (setting [8]), the Ratio is listed as 9.45. In addition, the IC50 is less than 10 nM in assay [1], 10 to 50 nM in assay [2], less than 10 nM in assay [5] and less than 10 nM in assay [6].

Regarding `Cc1cc2nc(N[C@@H](C)c3cncc(F)c3)nc(C(=O)N3CC[C@@H]3C)c2s1` [Example Z596], in assay [1] (setting [8]), the Ratio amounted to 10.34. The half-maximal inhibitory concentration (IC50) was less than 10 nM in assay [1], 10 to 50 nM in assay [2], less than 10 nM in assay [5] and less than 10 nM in assay [6].

Turning to `Cc1cc2nc(N[C@@H](C)c3cncc(F)c3)nc(C(=O)N3CC[C@@H](CN)C3)c2s1` [Example Z597, ((S)-3-(Aminomethyl)pyrrolidin-1-yl)(2-(((S)-1-(5-fluoropyridin-3-yl)ethyl)amino)-6-methylthieno[3,2-d]pyrimidin-4-yl)methanone], the Ratio in assay [1] (setting [8]) is 99.33. In addition, the half-inhibitory concentration (IC50) in assay [1] is 10 to 50 nM; in assay [2], greater than 500 nM; in assay [5], less than 10 nM; in assay [6], less than 10 nM.

In the case of `Cc1cc2nc(N[C@@H](C)c3cncc(F)c3)nc(C(=O)N3CC(NC(=O)[C@@H]4CCOC4)C3)c2s1` [Example Z598, (R)—N-(1-(2-(((S)-1-(5-Fluoropyridin-3-yl)ethyl)amino)-6-methylthieno[3,2-d]pyrimidine-4-carbonyl)azetidin-3-yl)tetrahydrofuran-3-carboxamide], the Ratio in assay [1] (setting [8]) is recorded as 0.68. Also, the IC50 was 10 to 50 nM in assay [1], 10 to 50 nM in assay [2], greater than 500 nM in assay [5] and 100 to 500 nM in assay [6].

For “(S)—N-((6-methoxypyridin-2-yl)methyl)-6-methyl-2-((1-(pyridin-2-yl)ethyl)amino)thieno[3,2-d]pyrimidine-4-carboxamide [Example Z464]”, the Ratio in assay [1] (setting [8]) amounted to 19.50. The IC50 was less than 10 nM in assay [1], 100 to 500 nM in assay [2], greater than 500 nM in assay [5] and 50 to 100 nM in assay [6].

A word on the IC50: it is the concentration that inhibits the measured activity by half.
